Tests used:
Assay type in all cases: cell-based, human
HA22T cells = test: Trypan blue exclusion cell viability assay; details: up to 72 hours
Description: (§1) Cells (4×10^4) are seeded in each well of 6-well plates with DMEM containing 10% FBS. Viable cells are analyzed by Trypan blue exclusion assay at 0, 24, 48, and 72 hours. Cell proliferation is evaluated by immunostaining with anti-Ki67 antibody (1:1000; Vector Laboratories). For cell-cycle analysis, 1×10^6 cells are stained with propidium iodide (Sigma) for 30 minutes. The percentages of cells in G1, S, and G2M phases are analyzed by flow cytometry (Becton Dickinson).
(§2) FIGS. 9A-9B are schematic diagrams illustrating the effects of C1GALT1 on the cell viability of hepatocellular carcinoma cells in vitro in accordance with an embodiment of the present invention. Cell viability of HA22T, PLC5, Sk-Hep1, and HCC36 cells was analyzed by Trypan blue exclusion assays at different time points for 72 hours. The results were standardized by the cell number at 0 hour. Data are represented as means±SD from three independent experiments. *, P<0.05; **, P<0.01.

PLC5 cells = test: Trypan blue exclusion cell viability assay; details: PLC5, up to 72 hours
Description: as §1, §2

[1] = test system: HGF/MET signaling pathway; test: HGF-induced signaling by Western blotting
Description: Human liver cancer cell lines, Huh7, PLC5, Sk-Hep1, and HepG2, are purchased from Bioresource Collection and Research Center in the year 2008. HA22T, SNU387, and HCC36 cells are kindly provided by Prof. Shiou-Hwei Yeh (National Taiwan University) in the year 2010. All cell lines are authenticated by the provider based on morphology, antigen expression, growth, DNA profile, and cytogenetics. Cells are cultured in Dulbecco's Modified Eagle Medium (DMEM) containing 10% FBS in 5% CO2 at 37° C. To analyze growth factor-induced cell signaling, cells are starved in serum-free DMEM for 5 hours and then treated with 25 ng/mL of hepatocyte growth factor (HGF) or insulin-like growth factor (IGF) at 37° C. for 30 minutes.
Equal amounts of protein samples are mixed with 5× sample buffer and boiled for 5 minutes, separated on SDS-polyacrylamide gels, and then transferred to PVDF membrane. The membranes are blocked in 5% BSA for 1 hour at room temperature, and incubated with primary antibodies overnight at 4° C. Anti-phosphotyrosine (4G10) antibody (Millipore, Billerica, Mass.), antibodies against C1GALT1, GAPDH, IGF-IR, MET pY 1234/5, IGF-IR pY1135/1136, p-AKT, p-ERK1/2, and ERK1/2 antibody (BD Pharmingen, San Jose, Calif.) are used. The blots are then incubated with secondary antibody conjugated with horseradish peroxidase and immunoreacted bands are detected by ECL reagents and exposed on x-ray film.
FIGS. 13A-13B are autoradiograms illustrating the effects of C1GALT1 on the HGF-induced signaling and IGF-induced signaling in hepatocellular carcinoma cells in accordance with an embodiment of the present invention. The role of C1GALT1 in glycosylation and activation of MET in hepatocellular carcinoma cells was investigated. HA22T, PLC5, Sk-Hep1, and HCC36 cells were starved for 5 hours and then treated with (+)/without (−) HGF (25 ng/mL) or IGF (25 ng/mL) for 30 minutes. Cell lysates ([…]) were analyzed by Western blotting with various antibodies, as indicated. […] In contrast, overexpression of C1GALT1 enhanced HGF-induced activation of MET and increased p-AKT levels in Sk-Hep1 and HCC36 cells, as shown in FIG. 13B.

MET [2] = test: VVA lectin pull-down of MET
Description: Vicia villosa agglutinin (VVA)- and peanut agglutinin (PNA) lectin-conjugated agarose beads, fluorescein isothiocyanate (FITC)-, and biotinylated VVA were purchased from Vector Laboratories. Recombinant EGF, HGF, IGF-I, and protein deglycosylation kits were purchased from Sigma. Protein deglycosylation is carried out using an Enzymatic Protein Deglycosylation Kit (Sigma). Briefly, cell lysates are treated with neuraminidase or PNGase F at 37° C. for 1 hour. For lectin blotting, […] of cell lysate is separated by an 8% SDS-PAGE, transferred to polyvinylidene difluoride membrane (Millipore), and blotted with biotinylated VVA (1:10,000). For lectin pull-down assay, cell lysates (0.3 mg) are incubated with or without deglycosylation enzymes and then applied to VVA- or PNA-conjugated agarose beads at 4° C. for 16 hours. The pulled down proteins are analyzed by Western blotting.
To investigate whether C1GALT1 can modify O-glycans on MET, VVA binding to MET was analyzed in hepatocellular carcinoma cells with C1GALT1 knockdown or overexpression. […] Cell lysates were treated with (+) or without (−) neuraminidase and then pulled down by VVA agarose beads. The pulled down glycoproteins were immunoblotted (IB) with anti-MET antibody. These findings indicate that C1GALT1 can modify O-glycans on MET in hepatocellular carcinoma cells. […]

MET [3] = test: HGF-induced dimerization of MET (BS3 cross-linking, Western blotting); details: 25 ng/mL HGF
Description: MET is also called hepatocyte growth factor receptor (HGFR). The MET gene is an important protooncogene in a variety of human cancers. To analyze dimerization of MET, hepatocellular carcinoma cells are incubated with or without 25 ng/mL of human HGF in DMEM on ice for 5 minutes. Cross-linker Bis(sulfosuccinimidyl) suberate (BS3, 0.25 mmol/L, Thermo Scientific) is added to cells and reacted at 37° C. for 5 minutes. Cells are then transferred on ice for 10 minutes. Reactions are blocked by adding 50 mmol/L of Tris-HCl (pH 7.4). Cell lysates are separated by 6% SDS-PAGE and immunoblotted with anti-MET antibody.
Because HGF-induced dimerization of MET is an initial and crucial step for the activation of MET signaling, whether C1GALT1 could affect MET dimerization was analyzed. FIGS. 19A-19B are autoradiograms illustrating the effects of C1GALT1 on dimerization of MET in hepatocellular carcinoma cells in accordance with an embodiment of the present invention. Hepatocellular carcinoma cells were starved for 5 hours and then treated with (+) or without (−) 25 ng/mL of HGF. Cell lysates were cross-linked by BS3 and then analyzed by Western blotting with anti-MET antibody. The arrows indicate the dimer (D) of MET, and the arrowheads indicate the monomer (M). Markers of molecular weight are shown on the left. GAPDH is an internal control.

Substance	cell viability (HA22T cells)	cell viability (PLC5 cells)	HGF-induced phosphorylation of MET at Y1234/5 ([1]; HA22T, HGF 25 ng/mL 30 minutes)	phosphorylation of AKT ([1]; HA22T, HGF 25 ng/mL 30 minutes)	HGF-induced phosphorylation of MET at Y1234/5 ([1]; PLC5, HGF 25 ng/mL 30 minutes)	phosphorylation of AKT ([1]; PLC5, HGF 25 ng/mL 30 minutes)	VVA binding to MET (MET [2]; HA22T cells)	VVA binding to MET (MET [2]; PLC5 cells)	HGF-induced dimerization of MET (MET [3]; HA22T cells)	HGF-induced dimerization of MET (MET [3]; PLC5 cells)
C1GALT1 si-1: siRNA oligonucleotide against C1GALT1, presumably SEQ ID NO: 1, UUAGUAUACGUUCAGGUAAGGUAGG (chemistry not given here)	significantly suppressed	significantly suppressed	inhibited	suppressed	inhibited	suppressed	increased	increased	suppressed	suppressed
C1GALT1 si-2: siRNA oligonucleotide against C1GALT1, presumably SEQ ID NO: 2, UUAUGUUGGCUAGAAUCUGCAUUGA (chemistry not given here)	significantly suppressed	significantly suppressed	inhibited	suppressed	inhibited	suppressed				

— patent publication US20150094354A1, “METHOD FOR TREATING CELL PROLIFERATIVE DISORDER BY INHIBITING C1GALT1 EXPRESSION” (National Taiwan University, priority 2013, published 2015)
